In publication PMC6928947, “Benzo[b]tellurophenes as a Potential Histone H3 Lysine 9 Demethylase (KDM4) Inhibitor” (International Journal of Molecular Sciences, 2019) one finds IC50 data, which are given here for one compound.

This assay addresses T1, KDM4A (Homo sapiens, UniProt O75164).
T1 sequence (O75164 2-1064): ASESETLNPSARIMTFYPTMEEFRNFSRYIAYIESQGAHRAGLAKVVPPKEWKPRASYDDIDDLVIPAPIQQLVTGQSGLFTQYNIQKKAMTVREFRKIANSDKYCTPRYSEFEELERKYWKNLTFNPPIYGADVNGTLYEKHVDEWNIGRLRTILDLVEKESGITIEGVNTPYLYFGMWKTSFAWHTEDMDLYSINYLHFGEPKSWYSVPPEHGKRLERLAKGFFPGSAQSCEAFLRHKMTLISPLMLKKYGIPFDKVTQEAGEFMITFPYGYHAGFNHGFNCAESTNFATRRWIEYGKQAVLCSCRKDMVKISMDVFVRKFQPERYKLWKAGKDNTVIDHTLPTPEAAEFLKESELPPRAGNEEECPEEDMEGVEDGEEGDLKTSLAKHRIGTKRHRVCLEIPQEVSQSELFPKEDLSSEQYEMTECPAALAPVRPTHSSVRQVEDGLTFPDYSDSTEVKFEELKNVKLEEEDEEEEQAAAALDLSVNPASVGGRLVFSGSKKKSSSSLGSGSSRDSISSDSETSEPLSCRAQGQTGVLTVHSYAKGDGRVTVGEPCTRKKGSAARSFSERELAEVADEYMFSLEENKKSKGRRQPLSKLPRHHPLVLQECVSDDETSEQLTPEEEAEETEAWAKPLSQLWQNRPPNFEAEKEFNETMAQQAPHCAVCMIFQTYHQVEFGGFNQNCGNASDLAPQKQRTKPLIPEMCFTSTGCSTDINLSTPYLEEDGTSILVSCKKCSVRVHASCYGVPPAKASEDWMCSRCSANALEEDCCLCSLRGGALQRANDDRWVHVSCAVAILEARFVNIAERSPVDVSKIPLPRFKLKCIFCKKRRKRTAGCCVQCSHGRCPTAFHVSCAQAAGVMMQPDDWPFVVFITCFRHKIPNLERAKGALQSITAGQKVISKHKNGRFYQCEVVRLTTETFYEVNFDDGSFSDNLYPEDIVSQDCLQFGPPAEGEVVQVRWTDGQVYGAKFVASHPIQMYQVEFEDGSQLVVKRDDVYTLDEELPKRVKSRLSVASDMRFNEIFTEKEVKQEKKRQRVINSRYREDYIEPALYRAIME
Put plainly: FDH-coupled demethylase assay, recombinant KDM4A with H3K9me3 peptide (Cayman kit […]). Type of assay: biochemical.

Consider `CC(C)(C)OC(=O)NCc1cc2ccccc2[te]1` [1c, tert-Butyl benzo[b]tellurophen-2-ylmethylcarbamate], for which the IC50 (in general, the concentration at which inhibition is half-maximal) worked out at 30.2 ± 4.6 µM.
